Common to all, as to assay: SelectScreen Kinase Profiling, single point inhibition and IC50 for off-target kinases
What all share (format): biochemical

The target of assay [1] is off-target kinases (Homo sapiens, UniProt P80192). To be noted: MAP3K9 (MLK1), ATP Km app, ZLYTE.
The target of assay [2] is T1, off-target kinases (Homo sapiens, UniProt O00329).
T1 sequence (O00329 1-1044): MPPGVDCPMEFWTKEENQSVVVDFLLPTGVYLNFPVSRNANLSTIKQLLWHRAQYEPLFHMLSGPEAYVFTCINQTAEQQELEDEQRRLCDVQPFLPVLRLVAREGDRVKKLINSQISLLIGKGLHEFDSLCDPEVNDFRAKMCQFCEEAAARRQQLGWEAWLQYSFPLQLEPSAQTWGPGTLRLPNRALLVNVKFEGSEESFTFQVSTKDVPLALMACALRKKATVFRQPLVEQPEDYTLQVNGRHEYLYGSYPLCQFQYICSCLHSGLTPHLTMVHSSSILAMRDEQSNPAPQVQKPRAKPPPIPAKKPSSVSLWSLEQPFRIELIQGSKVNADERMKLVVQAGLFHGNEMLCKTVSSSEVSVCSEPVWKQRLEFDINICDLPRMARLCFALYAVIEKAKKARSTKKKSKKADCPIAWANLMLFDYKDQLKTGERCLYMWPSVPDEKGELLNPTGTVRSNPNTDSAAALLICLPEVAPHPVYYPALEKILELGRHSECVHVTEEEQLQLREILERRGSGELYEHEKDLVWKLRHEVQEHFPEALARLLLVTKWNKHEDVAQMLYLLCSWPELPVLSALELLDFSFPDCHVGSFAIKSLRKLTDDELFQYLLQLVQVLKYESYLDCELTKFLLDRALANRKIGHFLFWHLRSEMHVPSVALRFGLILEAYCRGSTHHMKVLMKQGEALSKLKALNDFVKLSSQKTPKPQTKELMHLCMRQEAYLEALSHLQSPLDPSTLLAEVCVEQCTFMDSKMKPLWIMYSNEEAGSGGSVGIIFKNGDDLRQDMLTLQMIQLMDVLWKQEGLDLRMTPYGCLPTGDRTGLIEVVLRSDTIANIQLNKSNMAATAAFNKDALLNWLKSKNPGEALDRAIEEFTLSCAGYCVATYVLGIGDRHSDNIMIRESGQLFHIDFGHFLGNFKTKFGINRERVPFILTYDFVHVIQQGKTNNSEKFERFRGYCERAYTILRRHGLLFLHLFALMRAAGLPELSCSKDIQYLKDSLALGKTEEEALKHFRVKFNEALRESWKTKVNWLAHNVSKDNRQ
The conditions noted are these: PIK3CD/PIK3R1 (p110 delta/p85 alpha), Adapta, ATP Km app.

The target in assay [3] is off-target kinases (Homo sapiens, UniProt P08581, M1250T). To be noted: MET M1250T, mutant y, ZLYTE, ATP Km app.
Sequence of off-target kinases (Homo sapiens, UniProt P08581, M1250T) (P08581 25-1390 M1250T): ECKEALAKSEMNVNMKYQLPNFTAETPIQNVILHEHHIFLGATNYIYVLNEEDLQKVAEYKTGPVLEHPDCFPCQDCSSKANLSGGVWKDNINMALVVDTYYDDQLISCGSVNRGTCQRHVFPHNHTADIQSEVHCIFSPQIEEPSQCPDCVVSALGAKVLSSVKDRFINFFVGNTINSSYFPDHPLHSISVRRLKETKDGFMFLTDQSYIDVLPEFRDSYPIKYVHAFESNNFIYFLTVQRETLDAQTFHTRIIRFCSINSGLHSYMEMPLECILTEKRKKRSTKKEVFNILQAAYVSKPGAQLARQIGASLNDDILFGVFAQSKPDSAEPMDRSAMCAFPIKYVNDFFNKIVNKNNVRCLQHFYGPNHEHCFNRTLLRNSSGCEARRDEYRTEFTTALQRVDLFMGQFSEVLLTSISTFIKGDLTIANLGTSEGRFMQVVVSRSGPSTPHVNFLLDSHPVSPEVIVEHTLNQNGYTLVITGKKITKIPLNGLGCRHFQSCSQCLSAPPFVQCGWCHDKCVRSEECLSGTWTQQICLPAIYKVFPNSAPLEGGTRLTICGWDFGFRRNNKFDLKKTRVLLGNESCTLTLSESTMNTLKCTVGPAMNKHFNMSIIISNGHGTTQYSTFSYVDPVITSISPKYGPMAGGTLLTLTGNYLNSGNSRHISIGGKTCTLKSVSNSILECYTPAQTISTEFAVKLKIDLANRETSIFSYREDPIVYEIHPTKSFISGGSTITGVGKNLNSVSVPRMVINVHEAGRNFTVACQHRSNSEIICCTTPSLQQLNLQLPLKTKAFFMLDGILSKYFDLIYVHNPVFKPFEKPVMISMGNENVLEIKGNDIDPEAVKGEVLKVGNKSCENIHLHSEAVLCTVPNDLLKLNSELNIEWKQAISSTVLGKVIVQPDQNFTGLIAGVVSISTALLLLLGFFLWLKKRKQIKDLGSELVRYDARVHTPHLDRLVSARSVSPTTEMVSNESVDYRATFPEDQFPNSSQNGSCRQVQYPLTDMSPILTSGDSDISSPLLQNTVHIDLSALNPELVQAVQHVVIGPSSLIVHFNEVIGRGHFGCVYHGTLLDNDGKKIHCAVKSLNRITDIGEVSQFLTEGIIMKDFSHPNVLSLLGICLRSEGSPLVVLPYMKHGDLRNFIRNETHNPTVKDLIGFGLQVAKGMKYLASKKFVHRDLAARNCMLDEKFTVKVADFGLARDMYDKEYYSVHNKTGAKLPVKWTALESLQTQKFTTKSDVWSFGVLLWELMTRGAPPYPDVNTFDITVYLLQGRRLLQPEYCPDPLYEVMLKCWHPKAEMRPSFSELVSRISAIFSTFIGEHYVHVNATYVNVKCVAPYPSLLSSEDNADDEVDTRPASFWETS
Assay [4] addresses T2, off-target kinases (Homo sapiens, UniProt Q9NR20).
T2 sequence (Q9NR20 1-520): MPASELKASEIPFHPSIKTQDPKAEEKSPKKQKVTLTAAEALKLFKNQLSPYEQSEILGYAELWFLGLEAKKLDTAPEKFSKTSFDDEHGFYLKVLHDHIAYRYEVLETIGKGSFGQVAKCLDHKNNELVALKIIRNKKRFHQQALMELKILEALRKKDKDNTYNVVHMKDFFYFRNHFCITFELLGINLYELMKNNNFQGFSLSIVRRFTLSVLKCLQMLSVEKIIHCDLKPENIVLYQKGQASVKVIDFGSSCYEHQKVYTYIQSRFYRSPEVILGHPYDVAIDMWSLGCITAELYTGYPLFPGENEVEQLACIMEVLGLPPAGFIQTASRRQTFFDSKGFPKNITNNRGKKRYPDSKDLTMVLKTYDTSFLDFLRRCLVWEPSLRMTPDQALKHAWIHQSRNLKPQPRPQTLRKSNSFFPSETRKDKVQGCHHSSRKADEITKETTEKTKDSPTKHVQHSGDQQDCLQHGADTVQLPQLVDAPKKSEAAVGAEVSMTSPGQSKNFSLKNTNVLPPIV

Like-named read-outs stand apart in the source and are kept apart here.

What is called inhibition is the relative decrease from the control value, in per cent.

Sequence of off-target kinases (Homo sapiens, UniProt P80192) (P80192 whole entry): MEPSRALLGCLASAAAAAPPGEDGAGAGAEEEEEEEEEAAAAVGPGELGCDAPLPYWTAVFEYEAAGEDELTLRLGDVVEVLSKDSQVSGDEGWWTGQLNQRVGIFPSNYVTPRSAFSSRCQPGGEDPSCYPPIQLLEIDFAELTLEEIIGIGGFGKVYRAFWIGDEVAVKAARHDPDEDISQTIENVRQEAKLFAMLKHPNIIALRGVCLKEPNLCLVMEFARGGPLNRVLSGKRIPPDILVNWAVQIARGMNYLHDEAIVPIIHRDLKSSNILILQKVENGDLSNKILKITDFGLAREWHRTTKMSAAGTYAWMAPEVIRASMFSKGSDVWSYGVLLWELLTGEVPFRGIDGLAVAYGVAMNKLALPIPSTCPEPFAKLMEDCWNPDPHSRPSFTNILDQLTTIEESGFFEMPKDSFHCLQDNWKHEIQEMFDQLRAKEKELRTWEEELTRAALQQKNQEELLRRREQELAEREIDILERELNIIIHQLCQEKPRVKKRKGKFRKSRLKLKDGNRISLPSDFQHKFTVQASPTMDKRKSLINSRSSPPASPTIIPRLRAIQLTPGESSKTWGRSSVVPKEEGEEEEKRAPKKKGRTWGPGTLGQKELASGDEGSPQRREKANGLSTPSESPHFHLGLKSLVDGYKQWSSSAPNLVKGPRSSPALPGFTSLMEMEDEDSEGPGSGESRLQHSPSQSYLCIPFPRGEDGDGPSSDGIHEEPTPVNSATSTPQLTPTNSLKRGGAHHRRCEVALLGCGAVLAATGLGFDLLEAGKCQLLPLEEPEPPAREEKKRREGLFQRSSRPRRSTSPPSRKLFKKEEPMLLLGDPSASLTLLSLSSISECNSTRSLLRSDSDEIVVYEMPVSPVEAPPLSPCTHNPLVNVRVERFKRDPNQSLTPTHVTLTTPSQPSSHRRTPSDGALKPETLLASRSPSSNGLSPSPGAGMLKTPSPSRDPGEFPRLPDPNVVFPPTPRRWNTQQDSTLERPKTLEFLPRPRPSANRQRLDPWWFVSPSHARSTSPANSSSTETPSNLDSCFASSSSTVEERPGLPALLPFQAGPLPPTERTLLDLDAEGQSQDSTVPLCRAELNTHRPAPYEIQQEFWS

As for `N#Cc1cc(-c2ncnc(Nc3ccc(N4CCN(C5COC5)CC4)cc3)n2)ccc1OC1CCOCC1` [Compound 1, 5-(4-((4-(4-(oxetan-3-yl)piperazin-1-yl)phenyl)amino)-1,3,5-triazin-2-yl)-2-((tetrahydro-2H-pyran-4-yl)oxy)benzonitrile], the inhibition at off-target kinases [1] (read-out: % Inhibition 1) was determined as 68%; on off-target kinases [1] (read-out: % Inhibition 2) it was 73%; on off-target kinases [1] (read-out: % Inhibition Avg), 70%; at off-target kinases [2] (read-out: % Inhibition 1), 22%; on off-target kinases [2] (read-out: % Inhibition 2), 9%; on off-target kinases [2] (read-out: % Inhibition Avg) it was 16%. For the same molecule, the inhibition is 26% on off-target kinases [3] (read-out: % Inhibition 1); 34% at off-target kinases [3] (read-out: % Inhibition 2); 30% at off-target kinases [3] (read-out: % Inhibition Avg); -2% on off-target kinases [4] (read-out: % Inhibition 1); 0% at off-target kinases [4] (read-out: % Inhibition 2); -1% at off-target kinases [4] (read-out: % Inhibition Avg).

Source of the values: patent publication US11572590B2, “Methods for evaluating tumor cell spheroids using 3D microfluidic cell culture device” (Dana-Farber Cancer Institute, Inc., priority 2017, dated 2023).
